Test results as given in US11677091B2, “Use of quaternary ammonium salt-type anthraquinone-based active material and salt cavern organic aqueous redox flow battery” (CHINA SALT JINTAN CO., LTD., priority 2020, dated 2023).

Experiment: Electrochemical characterization of the active material (rotating disk electrode, diffusion coefficient, charge transfer rate constant)
Format: physicochemical
Conditions: on a graphite felt electrode
From the text: FIG. 2 to FIG. 9 show the characterization of electrochemical performances of the prepared active material.

SMILES: C[N+](C)(C)CCCOc1cccc2c1C(=O)c1c(OCCC[N+](C)(C)C)cccc1C2=O [Embodiment 1]
- charge transfer rate constant: 0.00302 cm/s
- diffusion coefficient: 3.94×10^−6 cm^2/s
